This note sets out measurements from ChEMBL document CHEMBL4364324, “Triazole derivatives as inhibitors of Alzheimer's disease: Current developments and structure-activity relationships” (Eur J Med Chem, 2019).

One may read the inhibition as the percentage by which the read-out fell short of the control. A lower inhibition goes with a weak effect. One may read the IC50 as the concentration needed to halve the response being measured. Higher therefore signals a need for much substance.

A value given as a limit tells only on which side of the number the result lay.

Experiment [1] deals with T1, Beta-secretase 1 (Homo sapiens, UniProt P56817). Kind of experiment: Inhibition of BACE1 (unknown origin) at 25 uM relative to control.
Experiment [2] deals with T2, Cholinesterase (Homo sapiens, UniProt P06276). Kind of experiment: Inhibition of human BuChE at 100 uM using acetylthiocholine iodide as substrate after 10 secs measured at 30 s intervals for two minutes by Ellman's method relative to control.
Experiment [3] concerns the target T2, Cholinesterase. Kind of experiment: Inhibition of BuChE (unknown origin) by Ellman's method. (DTNB colorimetry detects thiols as they appear.)
Experiment [4] addresses T3, Acetylcholinesterase (Electrophorus electricus, UniProt O42275). Description: Inhibition of electric eel AChE using acetylthiocholine iodide as substrate preincubated for 3 mins followed by substrate addition.
For experiment [5], the target named is Cholinesterase (Equus caballus, UniProt P81908). Description: Inhibition of equine serum BuChE using butyrylthiocholine iodide as substrate preincubated for 3 mins followed by substrate addition.
The target in experiment [6] is T4, Amyloid-beta precursor protein (Homo sapiens, UniProt P05067). Kind of experiment: Inhibition of amyloid beta (1 to 42) (unknown origin) self aggregation relative to control. The conditions noted are these: concentration not given here.
Experiment [7] addresses T3, Acetylcholinesterase. Kind of experiment: Inhibition of electric eel AChE using acetylthiocholine iodide as substrate after 15 mins by spectrophotometric analysis.
In experiment [8] the target is T1, Beta-secretase 1. Kind of experiment: Inhibition of BACE1 (unknown origin) expressed in baculovirus-expression system using Rh-EVNLDAEFK-Quencher substrate after 90 mins by FRET assay.
Experiment [9] concerns the target T2, Cholinesterase. Kind of experiment: Inhibition of BuChE (unknown origin) at 25 uM relative to control.
Another experiment relates to HCT-116. Kind of experiment: Cytotoxicity against human HCT116 cells after 18 hrs by MTT assay. Type of experiment: functional, cell-based. The settings on record: HCT-116, 18 h. A general note: Formazan colour is commonly taken as a measure of viable cells.
Experiment [10] concerns the target T2, Cholinesterase. Description: Inhibition of BuChE (unknown origin) after 2 mins.
In experiment [11] the target is T2, Cholinesterase.
Description: Inhibition of BuChE (unknown origin) using butyrylthiocholine chloride as substrate preincubated for 15 mins followed by substrate addition measured after 30 mins by Ellman's method
Experiment [12] deals with T2, Cholinesterase. This is another data set of the same source.
The target of experiment [13] is Cholinesterase (Equus caballus) (UniProt P81908). Kind of experiment: Inhibition of equine serum BuChE using butyrylthiocholine iodide as substrate preincubated for 10 mins followed by substrate addition measured after 15 mins by Ellman's method relative to control.
For experiment [14], the target named is T3, Acetylcholinesterase.
Description: Inhibition of electric eel AChE using acetylthiocholine iodide as substrate preincubated for 10 mins followed by substrate addition measured after 15 mins by Ellman's method
Experiment [15] deals with T4, Amyloid-beta precursor protein.

T4 sequence (P05067 whole entry): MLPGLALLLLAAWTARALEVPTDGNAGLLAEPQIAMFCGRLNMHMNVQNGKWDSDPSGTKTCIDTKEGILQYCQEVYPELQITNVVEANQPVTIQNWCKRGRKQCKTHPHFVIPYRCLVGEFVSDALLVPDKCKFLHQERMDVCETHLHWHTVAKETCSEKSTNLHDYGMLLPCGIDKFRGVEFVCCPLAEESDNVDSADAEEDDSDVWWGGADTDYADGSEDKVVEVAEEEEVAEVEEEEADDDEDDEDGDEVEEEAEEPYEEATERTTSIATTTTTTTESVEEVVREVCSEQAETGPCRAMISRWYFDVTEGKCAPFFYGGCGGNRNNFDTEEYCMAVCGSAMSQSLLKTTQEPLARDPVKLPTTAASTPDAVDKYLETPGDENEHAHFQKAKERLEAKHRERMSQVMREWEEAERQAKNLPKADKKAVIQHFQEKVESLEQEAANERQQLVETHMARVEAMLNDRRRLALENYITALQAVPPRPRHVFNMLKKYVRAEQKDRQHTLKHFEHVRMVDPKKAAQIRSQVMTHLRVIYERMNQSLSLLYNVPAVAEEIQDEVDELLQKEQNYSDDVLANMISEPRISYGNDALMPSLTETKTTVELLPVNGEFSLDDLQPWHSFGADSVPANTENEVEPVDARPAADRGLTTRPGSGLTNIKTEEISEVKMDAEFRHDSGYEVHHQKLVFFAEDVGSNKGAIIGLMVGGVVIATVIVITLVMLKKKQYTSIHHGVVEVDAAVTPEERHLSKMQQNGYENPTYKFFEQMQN
T3 sequence (O42275 whole entry): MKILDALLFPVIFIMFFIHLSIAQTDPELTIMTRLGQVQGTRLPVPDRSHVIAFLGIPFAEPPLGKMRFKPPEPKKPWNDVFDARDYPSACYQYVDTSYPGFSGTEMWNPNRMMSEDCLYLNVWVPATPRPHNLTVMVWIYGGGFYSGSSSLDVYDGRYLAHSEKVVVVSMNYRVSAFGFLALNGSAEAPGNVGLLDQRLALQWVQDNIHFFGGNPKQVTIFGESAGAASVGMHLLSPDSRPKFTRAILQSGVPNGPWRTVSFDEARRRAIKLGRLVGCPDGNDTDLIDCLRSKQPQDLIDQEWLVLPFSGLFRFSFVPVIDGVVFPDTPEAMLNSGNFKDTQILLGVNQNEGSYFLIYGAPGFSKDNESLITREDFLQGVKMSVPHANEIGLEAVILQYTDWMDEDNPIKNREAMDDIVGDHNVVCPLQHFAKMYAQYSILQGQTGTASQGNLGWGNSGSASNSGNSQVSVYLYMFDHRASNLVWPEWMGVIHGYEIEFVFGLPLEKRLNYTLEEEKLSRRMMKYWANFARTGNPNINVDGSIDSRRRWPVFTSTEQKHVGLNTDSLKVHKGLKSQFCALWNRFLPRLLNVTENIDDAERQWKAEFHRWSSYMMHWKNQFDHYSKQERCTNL
T1 sequence (P56817 whole entry): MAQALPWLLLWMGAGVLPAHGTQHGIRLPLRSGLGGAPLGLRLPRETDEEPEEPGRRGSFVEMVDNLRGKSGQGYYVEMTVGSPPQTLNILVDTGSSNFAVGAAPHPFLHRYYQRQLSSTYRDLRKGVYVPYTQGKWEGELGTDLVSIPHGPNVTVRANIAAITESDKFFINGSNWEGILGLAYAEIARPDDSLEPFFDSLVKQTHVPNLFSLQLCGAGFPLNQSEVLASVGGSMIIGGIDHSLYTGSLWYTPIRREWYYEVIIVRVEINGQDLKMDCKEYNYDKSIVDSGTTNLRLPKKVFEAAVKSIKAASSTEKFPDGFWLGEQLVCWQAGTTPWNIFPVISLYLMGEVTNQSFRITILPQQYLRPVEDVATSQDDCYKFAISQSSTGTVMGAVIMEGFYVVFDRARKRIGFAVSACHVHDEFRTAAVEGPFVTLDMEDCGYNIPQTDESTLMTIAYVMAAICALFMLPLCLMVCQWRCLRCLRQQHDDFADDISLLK
T2 sequence (P06276 whole entry): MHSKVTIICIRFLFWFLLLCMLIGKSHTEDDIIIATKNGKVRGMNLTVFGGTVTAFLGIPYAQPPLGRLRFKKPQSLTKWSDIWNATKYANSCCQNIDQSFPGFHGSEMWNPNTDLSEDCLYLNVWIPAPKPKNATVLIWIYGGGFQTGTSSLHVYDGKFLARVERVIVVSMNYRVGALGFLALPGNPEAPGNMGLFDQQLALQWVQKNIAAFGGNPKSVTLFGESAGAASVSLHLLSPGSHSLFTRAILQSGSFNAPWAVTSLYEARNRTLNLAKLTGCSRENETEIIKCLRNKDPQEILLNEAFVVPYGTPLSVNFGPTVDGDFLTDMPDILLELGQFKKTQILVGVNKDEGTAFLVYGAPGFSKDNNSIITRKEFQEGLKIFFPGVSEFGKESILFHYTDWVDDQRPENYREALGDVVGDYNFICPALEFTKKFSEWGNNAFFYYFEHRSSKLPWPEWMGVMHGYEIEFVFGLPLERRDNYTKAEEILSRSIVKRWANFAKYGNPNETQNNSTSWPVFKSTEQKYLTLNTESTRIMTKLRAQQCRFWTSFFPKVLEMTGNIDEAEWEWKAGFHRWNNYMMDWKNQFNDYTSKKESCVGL
Sequence of Cholinesterase (Equus caballus) (P81908 whole entry): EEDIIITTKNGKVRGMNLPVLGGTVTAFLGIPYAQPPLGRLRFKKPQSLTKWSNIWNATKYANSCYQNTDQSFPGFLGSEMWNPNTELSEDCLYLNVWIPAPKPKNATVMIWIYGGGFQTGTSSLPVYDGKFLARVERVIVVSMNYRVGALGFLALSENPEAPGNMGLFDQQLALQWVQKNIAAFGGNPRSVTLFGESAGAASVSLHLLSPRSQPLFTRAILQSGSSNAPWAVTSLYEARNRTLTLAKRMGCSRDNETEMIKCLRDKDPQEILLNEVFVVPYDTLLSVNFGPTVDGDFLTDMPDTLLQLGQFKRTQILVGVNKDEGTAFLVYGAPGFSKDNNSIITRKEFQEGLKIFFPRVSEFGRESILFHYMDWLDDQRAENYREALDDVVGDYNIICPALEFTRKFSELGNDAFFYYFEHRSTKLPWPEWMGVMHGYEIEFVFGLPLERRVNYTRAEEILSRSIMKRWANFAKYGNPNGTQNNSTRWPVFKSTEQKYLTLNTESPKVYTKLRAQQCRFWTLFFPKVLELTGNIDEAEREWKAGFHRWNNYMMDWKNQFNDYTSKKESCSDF
Sequence of Cholinesterase (Equus caballus, UniProt P81908) (P81908 whole entry): as above

For the compound `O=C(CCCc1ccc(O)cc1)NCc1cn(C[C@@H]2Cc3c([nH]c4ccccc34)CN2)nn1`, the inhibition against Beta-secretase 1 [1] came to 33%. As to `Cc1cccc(Cn2cc(Cn3c4ccccc4c4ccccc43)nn2)c1`, the IC50 at Cholinesterase [2] is > 100 µM. On Cholinesterase [3], `Cc1nn(CC(=O)N/N=C/c2ccc(Br)cc2)c(=O)n1-c1ccc(C(=O)N/N=C/c2ccc(Br)cc2)cc1` displayed an IC50 of 0.125 µM.

With `Cc1ccccc1Cn1cc(Cn2c3ccccc3c3ccccc32)nn1`, the IC50 at Cholinesterase [2] is > 100 µM. `O=C(NC1CCN(Cc2ccccc2)CC1)c1cc2ccc(OCc3cn(Cc4ccc(F)cc4)nn3)cc2oc1=O`: the IC50 at Acetylcholinesterase [4] fell in the range of 3.29 to 29.4 µM. As for `COc1cccc(Cn2cc(Cn3c4ccccc4c4ccccc43)nn2)c1`, at Cholinesterase [2], the IC50 is > 100 µM. With `Cc1ccc(Cn2cc(COc3ccc4cc(C(=O)NC5CCN(Cc6ccccc6)CC5)c(=O)oc4c3)nn2)cc1C`, the IC50 is 1.8 µM on Acetylcholinesterase [4] and > 100 µM against Cholinesterase [5]. Turning to `COc1cc(/C=C/C(=O)CC(=O)/C=C/c2ccc(O)c(OC)c2)ccc1O`, in experiment [6], the inhibition stood at 95.1%. Compound `CCn1cc(-c2nnc(O)n2Cc2ccccc2)c(=O)c2cc(Cl)c(F)cc21` had an IC50 against Acetylcholinesterase [7] of 1200 µM. On Cholinesterase [3], `Cc1nn(CC(=O)N/N=C/c2cccc(Br)c2)c(=O)n1-c1ccc(C(=O)N/N=C/c2cccc(Br)c2)cc1` registered an IC50 of 0.0937 µM.

As for `COc1ccc(/C=N/NC(=O)Cn2nc(C)n(-c3ccc(C(=O)N/N=C/c4ccc(OC)cc4)cc3)c2=O)cc1`, on Cholinesterase [3], the IC50 lay in the range of 0.0486 to 0.125 µM. On the same count and under the same terms, to `Cc1nn(CC(=O)N/N=C/c2ccccc2)c(=O)n1-c1ccc(C(=O)N/N=C/c2ccccc2)cc1` belongs 0.0702 µM. Regarding `Fc1cccc(Cn2cc(Cn3c4ccccc4c4ccccc43)nn2)c1`, the IC50 on Cholinesterase [2] is > 100 µM. On Beta-secretase 1 [8], `Clc1ccc(Cn2cc(COc3ccc(/C=N/Nc4nnc(-c5ccccc5)c(-c5ccccc5)n4)cc3)nn2)cc1` gave a half-inhibitory concentration (IC50) of 8.55 µM. Turning to `O=C(NC1CCN(Cc2ccccc2)CC1)c1cc2ccc(OCc3cn(Cc4ccccc4Br)nn3)cc2oc1=O`, the IC50 on Acetylcholinesterase [4] was in the range of 3.29 to 29.4 µM.

`Clc1ccc(-c2cn(C[C@@H]3Cc4c([nH]c5ccccc45)CN3)nn2)cc1Cl`: the inhibition at Beta-secretase 1 [1] and against Cholinesterase [9] was 61.5% throughout. As to `Oc1ccc2cc(-c3cn(C[C@@H]4Cc5c([nH]c6ccccc56)CN4)nn3)ccc2c1`, at Beta-secretase 1 [1], the inhibition was found to be 30.4%.

Compound `O=C(NC1CCN(Cc2ccccc2)CC1)c1cc2ccc(OCc3cn(Cc4cccc(Cl)c4Cl)nn3)cc2oc1=O` gave an IC50 against Acetylcholinesterase [4] of 3.29 to 29.4 µM.

In the experiment with HCT-116, `O=c1oc2ccccc2c2c1cnn2Cc1cn(-c2c(Cl)cc(Cl)cc2Cl)nn1` displayed an IC50 of 6 µM. As for `Cc1cc(=O)oc2cc(OCCCCCn3cc(CNc4c5c(nc6cc(Cl)ccc46)CCCC5)nn3)ccc12`, the IC50 against Cholinesterase [10] amounted to 0.027 µM. At Cholinesterase [2], `COc1ccc2c(c1)C(=O)/C(=C/c1ccc(-c3cn(-c4ccnc5ccccc45)nn3)cc1)C2` displayed an inhibition of 0%. As for `CN(C)CCCC1(c2ccc(F)cc2)CCc2cc(-c3nnc(-c4ccccc4I)[nH]3)ccc21` (stereo unspecified), at Cholinesterase [11], the half-inhibitory concentration (IC50) fell in the range of 4.52 to 9.52 µM. At Cholinesterase [12], `CC1(C)Oc2cc3oc(=O)ccc3cc2CC1OC(=O)n1cc(CNC(=O)CCCCC2CCSS2)nn1` (stereo unspecified) registered a half-maximal inhibitory concentration (IC50) of 5890 µM. Consider `O=C(/C=C/c1ccc(O)c(O)c1)NCc1cn(C[C@@H]2Cc3c([nH]c4ccccc34)CN2)nn1`, for which the inhibition at Beta-secretase 1 [1] amounted to 40%. For `CN(C)CCCC1(c2ccc(F)cc2)CCc2cc(-c3nnc(-c4ccccc4F)[nH]3)ccc21` (stereo unspecified), at Cholinesterase [11], the IC50 was determined as 4.52 µM.

In turn, `CC(C)(C)c1ccc(-c2cn(C[C@@H]3Cc4c([nH]c5ccccc45)CN3)nn2)cc1` yielded an inhibition against Beta-secretase 1 [1] of 18.9%. Regarding `Cc1nn(CC(=O)N/N=C/c2ccc(Br)cc2O)c(=O)n1-c1ccc(C(=O)N/N=C/c2ccc(Br)cc2O)cc1`, the midpoint of inhibition against Cholinesterase [3], the IC50, lay at 0.0486 µM. Regarding `CN(C)CCCC1(c2ccc(F)cc2)CCc2cc(-c3nnc(-c4cccc(Cl)c4)[nH]3)ccc21` (stereo unspecified), the IC50 against Cholinesterase [11] is 4.52 to 9.52 µM. `Cc1ccc(OCc2nn3c(-c4cccc(Br)c4)nnc3s2)cc1` yielded an inhibition in [13] of 50%. Further, the IC50 against Acetylcholinesterase [14] stood at 0.117 µM. Turning to `Fc1ccccc1Cn1cc(Cn2c3ccccc3c3ccccc32)nn1`, the IC50 against Cholinesterase [2] is > 100 µM. As to `O=C(NC1CCN(Cc2ccccc2)CC1)c1cc2ccc(OCc3cn(Cc4ccccc4Cl)nn3)cc2oc1=O`, at Acetylcholinesterase [4], the IC50 was 3.29 to 29.4 µM.

In turn, `CN(C)CCCC1(c2ccc(F)cc2)CCc2cc(-c3nnc(-c4cccc(F)c4)[nH]3)ccc21` (stereo unspecified) came in with an IC50 against Cholinesterase [11] of 4.52 to 9.52 µM.

In [6], `CCOC(=O)C(Cc1cn(-c2ccccc2C(F)(F)F)nn1)(Cc1cn(-c2ccccc2C(F)(F)F)nn1)NC(C)=O` registered an inhibition of 96.9%. The same compound showed an IC50 in experiment [15] of 8.06 µM. Compound `O=c1ccc2ccc(OCCCCCCCn3cc(CNc4c5c(nc6ccccc46)CCCC5)nn3)cc2o1` gave an IC50 against Cholinesterase [10] of 0.006 µM. On Beta-secretase 1 [8], `O=[N+]([O-])c1ccc(Cn2cc(COc3ccc(/C=N/Nc4nnc(-c5ccccc5)c(-c5ccccc5)n4)cc3)nn2)cc1` yielded an IC50 of 11.4 µM. `CN(C)CCCC1(c2ccc(F)cc2)CCc2cc(-c3nnc(-c4ccc(F)cc4)[nH]3)ccc21` (stereo unspecified) showed an IC50 against Cholinesterase [11] of 5.31 µM.

For the compound `Cc1nn(CC(=O)N/N=C/c2ccc(Cl)cc2)c(=O)n1-c1ccc(C(=O)N/N=C/c2ccc(Cl)cc2)cc1`, it took 0.0557 µM to reach half-maximal inhibition against Cholinesterase [3] (IC50).

The compound `COc1ccc2c(c1)C/C(=C\c1ccc(-c3cn(-c4ccnc5ccccc45)nn3)cc1)C2=O` showed an inhibition on Cholinesterase [2] of 0.2%.

With `CN(C)C(=O)Oc1cccc([N+](C)(C)C)c1` [NEOSTIGMINE], on Acetylcholinesterase [14], 16.3 µM corresponded to half-maximal inhibition (IC50). `COc1cc(-c2nnc(-c3ccc4c(c3)CCC4(CCCN(C)C)c3ccc(F)cc3)[nH]2)ccc1O` (stereo unspecified): on Cholinesterase [11], the concentration for half-maximal inhibition (IC50) was in the range of 4.52 to 9.52 µM. As for `O=C(NC1CCN(Cc2ccccc2)CC1)c1cc2ccc(OCc3cn(Cc4ccc(Cl)c(Cl)c4)nn3)cc2oc1=O`, the IC50 on Acetylcholinesterase [4] fell in the range of 3.29 to 29.4 µM. At Acetylcholinesterase [7], `CCn1c(O)nnc1-c1cn(CC)c2ccc(C)cc2c1=O` showed an IC50 of 1740 µM.
